Results reported in publication PMC5218480 (PLoS ONE, 2017).

Tested on: MV-4-11 cells
Assay: Gene expression microarray analysis (Affymetrix PrimeView) and GSEA
Type: cell-based, human
Parameters: RFU PODN (11730768_x_at) / Fold change /veh PODN (11730768_x_at) / RFU LINC00158 (11744669_a_at) / Fold change /veh LINC00158 (11744669_a_at) / RFU DUSP10 (11751237_a_at) / Fold change /veh DUSP10 (11751237_a_at) / RFU ID3 (11757404_x_at) / Fold change /veh ID3 (11757404_x_at) / RFU PLEKHG5 (11737974_s_at) / Fold change /veh PLEKHG5 (11737974_s_at) / RFU LRRC4B (11730491_at) / Fold change /veh LRRC4B (11730491_at) / RFU GIMAP4 (11747438_a_at) / Fold change /veh GIMAP4 (11747438_a_at) / RFU KRT8 (11758183_x_at) / Fold change /veh KRT8 (11758183_x_at) / RFU CNN1 (11734310_a_at) / Fold change /veh CNN1 (11734310_a_at) / RFU VPS37D (11726825_at) / Fold change /veh VPS37D (11726825_at) / RFU C10orf10 (11716522_x_at) / Fold change /veh C10orf10 (11716522_x_at) / RFU KIR2DL2 /// KIR2DL4 /// KIR2DL5A /// KIR2DL5B /// KIR2DS1 /// KIR2DS2 /// KIR2DS3 /// KIR2DS4 /// KIR3DL3 /// KIR3DL3 /// KIR3DS1 (11738374_at) / Fold change /veh KIR2DL2 /// KIR2DL4 /// KIR2DL5A /// KIR2DL5B /// KIR2DS1 /// KIR2DS2 /// KIR2DS3 /// KIR2DS4 /// KIR3DL3 /// KIR3DL3 /// KIR3DS1 (11738374_at) / RFU C1QL1 (11718748_at) / Fold change /veh C1QL1 (11718748_at) / RFU TMPRSS4 (11747572_a_at) / Fold change /veh TMPRSS4 (11747572_a_at) / RFU HAMP (11756126_x_at) / Fold change /veh HAMP (11756126_x_at) / RFU RNFT2 (11725882_a_at) / Fold change /veh RNFT2 (11725882_a_at) / RFU NR4A2 (11747474_a_at) / Fold change /veh NR4A2 (11747474_a_at) / RFU ABCC12 (11746883_a_at) / Fold change /veh ABCC12 (11746883_a_at) / RFU TMEM136 (11760407_x_at) / Fold change /veh TMEM136 (11760407_x_at) / RFU CLDN22 /// WWC2 (11732394_at) / Fold change /veh CLDN22 /// WWC2 (11732394_at) / RFU HLA-DPB1 (11760878_x_at) / Fold change /veh HLA-DPB1 (11760878_x_at) / RFU SPINT1 (11716480_a_at) / Fold change /veh SPINT1 (11716480_a_at) / RFU GAP43 (11754022_s_at) / Fold change /veh GAP43 (11754022_s_at) / RFU A4GNT (11735810_at) / Fold change /veh A4GNT (11735810_at) / RFU PRB3 (11715151_x_at) / Fold change /veh PRB3 (11715151_x_at) / RFU TUBB4B (11761932_at) / Fold change /veh TUBB4B (11761932_at) / RFU CAPN14 (11732068_a_at) / Fold change /veh CAPN14 (11732068_a_at) / RFU TMCC2 (11721928_a_at) / Fold change /veh TMCC2 (11721928_a_at) / RFU IRGQ (11745062_a_at) / Fold change /veh IRGQ (11745062_a_at) / RFU FAM174B (11720279_a_at) / Fold change /veh FAM174B (11720279_a_at) / RFU TMPRSS4 (11748680_a_at) / Fold change /veh TMPRSS4 (11748680_a_at) / RFU FAM212B (11763350_a_at) / Fold change /veh FAM212B (11763350_a_at) / RFU PLEKHG5 (11743358_a_at) / Fold change /veh PLEKHG5 (11743358_a_at) / RFU ZSCAN30 (11745921_a_at) / Fold change /veh ZSCAN30 (11745921_a_at) / RFU CMKLR1 (11741424_a_at) / Fold change /veh CMKLR1 (11741424_a_at) / RFU LOC101060620 /// MAPK8IP1 (11723275_at) / Fold change /veh LOC101060620 /// MAPK8IP1 (11723275_at) / RFU SPTSSB (11747773_x_at) / Fold change /veh SPTSSB (11747773_x_at) / RFU PRSS12 (11739890_at) / Fold change /veh PRSS12 (11739890_at) / RFU BIN1 (11741810_x_at) / Fold change /veh BIN1 (11741810_x_at) / RFU WNT11 (11732464_a_at) / Fold change /veh WNT11 (11732464_a_at) / RFU C10orf10 (11716521_a_at) / Fold change /veh C10orf10 (11716521_a_at) / RFU C5orf56 (11738089_at) / Fold change /veh C5orf56 (11738089_at) / RFU CYB561 (11721691_x_at) / Fold change /veh CYB561 (11721691_x_at) / RFU ANKRD19P (11752326_a_at) / Fold change /veh ANKRD19P (11752326_a_at) / RFU OR2T12 /// OR2T33 /// OR2T8 (11738714_s_at) / Fold change /veh OR2T12 /// OR2T33 /// OR2T8 (11738714_s_at) / RFU VCAN (11748164_a_at) / Fold change /veh VCAN (11748164_a_at) / RFU JSRP1 (11732532_at) / Fold change /veh JSRP1 (11732532_at) / RFU KRTAP10-11 (11738290_x_at) / Fold change /veh KRTAP10-11 (11738290_x_at) / RFU MYO3A (11730013_a_at) / Fold change /veh MYO3A (11730013_a_at) / RFU EBF3 (11725865_a_at) / Fold change /veh EBF3 (11725865_a_at) / RFU CAMK2N1 (11719241_x_at) / Fold change /veh CAMK2N1 (11719241_x_at) / RFU C5orf56 (11738088_a_at) / Fold change /veh C5orf56 (11738088_a_at) / RFU OLFML3 (11715873_a_at) / Fold change /veh OLFML3 (11715873_a_at) / RFU LOC100653217 /// NTM (11731650_a_at) / Fold change /veh LOC100653217 /// NTM (11731650_a_at) / RFU MAPK11 (11762145_a_at) / Fold change /veh MAPK11 (11762145_a_at) / RFU FIZ1 (11724087_x_at) / Fold change /veh FIZ1 (11724087_x_at) / RFU OASL (11726364_x_at) / Fold change /veh OASL (11726364_x_at) / RFU SOX15 (11748057_x_at) / Fold change /veh SOX15 (11748057_x_at) / RFU CD79A (11719716_a_at) / Fold change /veh CD79A (11719716_a_at) / RFU HIST1H1D (11736915_at) / Fold change /veh HIST1H1D (11736915_at) / RFU CASKIN2 (11723855_a_at) / Fold change /veh CASKIN2 (11723855_a_at) / RFU LOC730098 (11760151_x_at) / Fold change /veh LOC730098 (11760151_x_at) / RFU OR4N2 (11742367_at) / Fold change /veh OR4N2 (11742367_at) / RFU PRRT2 (11749266_a_at) / Fold change /veh PRRT2 (11749266_a_at) / RFU SNX32 (11753110_a_at) / Fold change /veh SNX32 (11753110_a_at) / RFU CDHR5 (11726645_a_at) / Fold change /veh CDHR5 (11726645_a_at) / RFU RCAN1 (11760418_a_at) / Fold change /veh RCAN1 (11760418_a_at) / RFU FAM167A (11723789_a_at) / Fold change /veh FAM167A (11723789_a_at) / RFU FAM26E (11764081_at) / Fold change /veh FAM26E (11764081_at) / RFU ISYNA1 (11749810_s_at) / Fold change /veh ISYNA1 (11749810_s_at) / RFU ACY1 (11761880_at) / Fold change /veh ACY1 (11761880_at) / RFU 11764098_at / Fold change /veh 11764098_at / RFU SAMD14 (11745864_x_at) / Fold change /veh SAMD14 (11745864_x_at) / RFU NPB (11741838_a_at) / Fold change /veh NPB (11741838_a_at) / RFU TMPRSS6 (11731388_a_at) / Fold change /veh TMPRSS6 (11731388_a_at) / RFU KRTAP10-2 (11738614_at) / Fold change /veh KRTAP10-2 (11738614_at) / RFU ARHGAP8 /// PRR5-ARHGAP8 (11727945_x_at) / Fold change /veh ARHGAP8 /// PRR5-ARHGAP8 (11727945_x_at) / RFU KRTAP5-7 /// NADSYN1 (11734609_at) / Fold change /veh KRTAP5-7 /// NADSYN1 (11734609_at) / RFU RASL12 (11751679_a_at) / Fold change /veh RASL12 (11751679_a_at) / RFU CDKN2B (11736163_a_at) / Fold change /veh CDKN2B (11736163_a_at) / RFU PRF1 (11729649_at) / Fold change /veh PRF1 (11729649_at) / RFU, ZNF638 /// ZNF638-IT1 / Fold change vs veh, ZNF638 /// ZNF638-IT1 / RFU, PANK3 / Fold change vs veh, PANK3 / RFU, SH3YL1 / Fold change vs veh, SH3YL1 / RFU, ZEB2 / Fold change vs veh, ZEB2 / RFU, NRIP1 / Fold change vs veh, NRIP1 / RFU, PTTG1IP / Fold change vs veh, PTTG1IP / RFU, CAPN2 / Fold change vs veh, CAPN2 / RFU, MED14 / Fold change vs veh, MED14 / RFU, SNORA58 / Fold change vs veh, SNORA58 / RFU, C1orf63 / Fold change vs veh, C1orf63 / RFU, LRRFIP1 / Fold change vs veh, LRRFIP1 / RFU, NDUFAF7 / Fold change vs veh, NDUFAF7 / RFU, SLC12A2 / Fold change vs veh, SLC12A2 / RFU, IBTK / Fold change vs veh, IBTK / RFU, ESF1 / Fold change vs veh, ESF1 / Fold change vs veh, TMEM50B / RFU, TAOK1 / Fold change vs veh, TAOK1 / RFU, ACBD3 / Fold change vs veh, ACBD3 / RFU, TMA16 / Fold change vs veh, TMA16 / RFU, RWDD3 / Fold change vs veh, RWDD3 / RFU, BCAT1 / Fold change vs veh, BCAT1 / RFU, EDEM3 / Fold change vs veh, EDEM3 / RFU, TMEM33 / Fold change vs veh, TMEM33 / RFU, WDR75 / Fold change vs veh, WDR75 / RFU, AHCTF1 / Fold change vs veh, AHCTF1 / RFU, TFRC / Fold change vs veh, TFRC / RFU, ZDHHC17 / Fold change vs veh, ZDHHC17 / RFU, NOM1 / Fold change vs veh, NOM1 / RFU, ARL8B / Fold change vs veh, ARL8B / RFU, ZBTB11 / Fold change vs veh, ZBTB11 / RFU, TAMM41 / Fold change vs veh, TAMM41 / RFU, KIAA1704 /// LOC100996395 / Fold change vs veh, KIAA1704 /// LOC100996395 / RFU, ING1 / Fold change vs veh, ING1 / RFU, TRMT61B / Fold change vs veh, TRMT61B / RFU, FUBP3 / Fold change vs veh, FUBP3 / RFU, TP53 / Fold change vs veh, TP53 / RFU, TNKS2 / Fold change vs veh, TNKS2 / RFU, ZFP14 / Fold change vs veh, ZFP14 / RFU, ACTR2 / Fold change vs veh, ACTR2 / RFU, PPP3R1 / Fold change vs veh, PPP3R1 / RFU, PIK3R1 / Fold change vs veh, PIK3R1 / RFU, HNRNPA1 / Fold change vs veh, HNRNPA1 / RFU, RNF170 / Fold change vs veh, RNF170 / RFU, ZNF28 / Fold change vs veh, ZNF28 / RFU, RNGTT / Fold change vs veh, RNGTT / RFU, OGT / Fold change vs veh, OGT / RFU, BRD1 / Fold change vs veh, BRD1 / RFU, MARS / Fold change vs veh, MARS / RFU, ZNF655 / Fold change vs veh, ZNF655 / RFU, FAHD1 / Fold change vs veh, FAHD1 / RFU, BDP1 / Fold change vs veh, BDP1 / RFU, LRRCC1 / Fold change vs veh, LRRCC1 / RFU, ARID1A / Fold change vs veh, ARID1A / RFU, ZNF146 / Fold change vs veh, ZNF146 / RFU, ZNF330 / Fold change vs veh, ZNF330 / RFU, GPN3 / Fold change vs veh, GPN3 / RFU, C9orf123 / Fold change vs veh, C9orf123 / RFU, N4BP2L2 / Fold change vs veh, N4BP2L2 / RFU, ARFIP1 / Fold change vs veh, ARFIP1 / RFU, FAM179B / Fold change vs veh, FAM179B / RFU, BCL10 / Fold change vs veh, BCL10 / RFU, UHRF1BP1L / Fold change vs veh, UHRF1BP1L / RFU, BET1 / Fold change vs veh, BET1 / RFU, CNOT2 / Fold change vs veh, CNOT2 / RFU, ZNF268 / Fold change vs veh, ZNF268 / Fold change vs veh, ZNF507 / RFU, DGCR2 / Fold change vs veh, DGCR2 / RFU, WDSUB1 / Fold change vs veh, WDSUB1 / Fold change vs veh, HSP90B1 /// MIR3652 / RFU, ADSS / Fold change vs veh, ADSS / RFU, GK / Fold change vs veh, GK / RFU, ZNF148 / Fold change vs veh, ZNF148 / RFU, TAF9 / Fold change vs veh, TAF9 / RFU, SLC1A5 / Fold change vs veh, SLC1A5 / RFU, SLMO2 / Fold change vs veh, SLMO2 / RFU, ABCC4 / Fold change vs veh, ABCC4 / RFU, LOC101060439 /// RAP1B / Fold change vs veh, LOC101060439 /// RAP1B / RFU, RFX7 / Fold change vs veh, RFX7 / RFU, GTPBP10 / Fold change vs veh, GTPBP10 / RFU, CNEP1R1 / Fold change vs veh, CNEP1R1 / RFU, BIVM-ERCC5 /// ERCC5 / Fold change vs veh, BIVM-ERCC5 /// ERCC5 / RFU, ILF3 / Fold change vs veh, ILF3 / RFU 11762660_at / Fold change /veh 11762660_at / RFU VCAN (11757783_s_at) / Fold change /veh VCAN (11757783_s_at) / RFU DDX43 (11728927_at) / Fold change /veh DDX43 (11728927_at) / RFU KRT8 (11758188_x_at) / Fold change /veh KRT8 (11758188_x_at) / RFU NKD1 (11759106_at) / Fold change /veh NKD1 (11759106_at) / RFU SRD5A1 (11742802_a_at) / Fold change /veh SRD5A1 (11742802_a_at) / RFU TPSAB1 /// TPSB2 (11721975_s_at) / Fold change /veh TPSAB1 /// TPSB2 (11721975_s_at) / RFU GSTM3 (11746129_a_at) / Fold change /veh GSTM3 (11746129_a_at) / RFU IL23R (11737362_x_at) / Fold change /veh IL23R (11737362_x_at) / RFU TMEM51 (11727254_a_at) / Fold change /veh TMEM51 (11727254_a_at) / RFU PIWIL2 (11732686_x_at) / Fold change /veh PIWIL2 (11732686_x_at) / RFU ORM1 (11744905_x_at) / Fold change /veh ORM1 (11744905_x_at) / RFU CCDC152 (11743942_at) / Fold change /veh CCDC152 (11743942_at) / RFU ECM1 (11717891_a_at) / Fold change /veh ECM1 (11717891_a_at) / RFU IL23R (11748794_a_at) / Fold change /veh IL23R (11748794_a_at) / RFU TNFAIP8L3 (11732012_x_at) / Fold change /veh TNFAIP8L3 (11732012_x_at) / RFU MBOAT4 (11741988_at) / Fold change /veh MBOAT4 (11741988_at) / RFU 11764193_at / Fold change /veh 11764193_at / RFU TMEM53 (11763286_at) / Fold change /veh TMEM53 (11763286_at) / RFU MAGEB2 (11727129_at) / Fold change /veh MAGEB2 (11727129_at) / RFU TMEM200A (11744735_a_at) / Fold change /veh TMEM200A (11744735_a_at) / RFU CCDC152 (11751479_a_at) / Fold change /veh CCDC152 (11751479_a_at) / RFU FAM211A (11726209_a_at) / Fold change /veh FAM211A (11726209_a_at) / RFU RGS16 (11746705_a_at) / Fold change /veh RGS16 (11746705_a_at) / RFU VCAN (11755009_s_at) / Fold change /veh VCAN (11755009_s_at) / RFU RHOB (11743442_s_at) / Fold change /veh RHOB (11743442_s_at) / RFU RGS16 (11720943_a_at) / Fold change /veh RGS16 (11720943_a_at) / RFU RGS16 (11720944_at) / Fold change /veh RGS16 (11720944_at) / RFU, VPS4B / Fold change vs veh, VPS4B / RFU, CREB1 / Fold change vs veh, CREB1 / RFU, DNAJC13 / Fold change vs veh, DNAJC13 / RFU, GNAQ / Fold change vs veh, GNAQ / RFU, CDK5R1 / Fold change vs veh, CDK5R1 / RFU, ZRANB3 / Fold change vs veh, ZRANB3 / RFU, CUL4A / Fold change vs veh, CUL4A / RFU, CCNY / Fold change vs veh, CCNY / RFU, UFL1 / Fold change vs veh, UFL1 / RFU, COG3 / Fold change vs veh, COG3 / RFU, DIAPH2 / Fold change vs veh, DIAPH2 / RFU, SKA2 / Fold change vs veh, SKA2 / RFU, AFF3 / Fold change vs veh, AFF3 / RFU, LMF1 / Fold change vs veh, LMF1 / RFU, IPO11 / Fold change vs veh, IPO11 / RFU, DFFB / Fold change vs veh, DFFB / RFU, FOXP1 / Fold change vs veh, FOXP1 / RFU, CARD8 / Fold change vs veh, CARD8 / RFU, STRN3 / Fold change vs veh, STRN3 / RFU, ADK / Fold change vs veh, ADK / RFU, RASSF2 / Fold change vs veh, RASSF2 / RFU, WIPF1 / Fold change vs veh, WIPF1 / RFU, LARP1B / Fold change vs veh, LARP1B / RFU, RASA1 / Fold change vs veh, RASA1 / RFU, RB1 / Fold change vs veh, RB1 / RFU, PPFIA1 / Fold change vs veh, PPFIA1 / RFU, MAT2A / Fold change vs veh, MAT2A / RFU, CCT5 / Fold change vs veh, CCT5 / RFU, WDR92 / Fold change vs veh, WDR92 / RFU, CUX1 / Fold change vs veh, CUX1 / RFU, TTC7A / Fold change vs veh, TTC7A / RFU, TMEM135 / Fold change vs veh, TMEM135 / RFU, DEPTOR / Fold change vs veh, DEPTOR / RFU, CPM / Fold change vs veh, CPM / RFU, DNAJB6 / Fold change vs veh, DNAJB6 / RFU, CACNA2D3 / Fold change vs veh, CACNA2D3 / RFU, DTX4 / Fold change vs veh, DTX4 / RFU, TFCP2 / Fold change vs veh, TFCP2 / RFU, GMCL1 /// GMCL1P1 / Fold change vs veh, GMCL1 /// GMCL1P1 / RFU, AEBP2 / Fold change vs veh, AEBP2 / RFU, SNHG1 /// SNORD22 /// SNORD25 /// SNORD26 /// SNORD27 /// SNORD28 /// SNORD29 /// SNORD31 / Fold change vs veh, SNHG1 /// SNORD22 /// SNORD25 /// SNORD26 /// SNORD27 /// SNORD28 /// SNORD29 /// SNORD31 / Fold change (Aza/veh), C12orf56 (ProbeSet 11735607_a_at) / Fold change (ACY-1035/veh), C12orf56 (ProbeSet 11735607_a_at) / Fold change (Aza/veh), FGFR1OP (ProbeSet 11751329_s_at) / Fold change (ACY-1035/veh), FGFR1OP (ProbeSet 11751329_s_at) / Fold change (Aza/veh), VPS36 (ProbeSet 11739960_a_at) / Fold change (ACY-1035/veh), VPS36 (ProbeSet 11739960_a_at) / RFU SYPL1 (11715823_x_at) / Fold change /veh SYPL1 (11715823_x_at) / RFU IGFBP7 (11715501_s_at) / Fold change /veh IGFBP7 (11715501_s_at) / RFU REEP3 (11722064_at) / Fold change /veh REEP3 (11722064_at) / RFU IGLL1 (11728026_x_at) / Fold change /veh IGLL1 (11728026_x_at): dose or concentration left out as unconfirmed
Settings: ProbeSet 11760938_a_at; LIST D

For `Nc1ncn([C@@H]2O[C@H](CO)[C@@H](O)[C@H]2O)c(=O)n1` [azacitidine], the “RFU, MAT2A” value was 129.03 RFU.
